Measurements as given in PubChem BioAssay (NCI).
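Interpolation was linear, between the two tested concentrations surrounding the appropriate level; five concentrations were tested over 48 hours in 96-well plates. TGI: total growth inhibition.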

Columns and labels:
Assay in all cases: NCI-60 cell line screen, 48 h
786-0 renal = test system: 786-0 renal
COLO 205 colon = test system: COLO 205 colon
HOP-62 NSCLC = test system: HOP-62 NSCLC
HT29 colon = test system: HT29 colon
KM12 colon = test system: KM12 colon
MDA-MB-231 breast = test system: MDA-MB-231 breast
MDA-MB-435 = test system: MDA-MB-435
MOLT-4 leukemia = test system: MOLT-4 leukemia
RXF 393 renal = test system: RXF 393 renal
SF-295 CNS = test system: SF-295 CNS
SF-539 CNS = test system: SF-539 CNS
SK-MEL-2 melanoma = test system: SK-MEL-2 melanoma
SN12C renal = test system: SN12C renal
UACC-257 melanoma = test system: UACC-257 melanoma

Structure (SMILES)	TGI (786-0 renal)	TGI (COLO 205 colon)	TGI (HOP-62 NSCLC)	TGI (HT29 colon)	TGI (KM12 colon)	TGI (MDA-MB-231 breast)	TGI (MDA-MB-435)	TGI (MOLT-4 leukemia)	TGI (RXF 393 renal)	TGI (SF-295 CNS)	TGI (SF-539 CNS)	TGI (SK-MEL-2 melanoma)	TGI (SN12C renal)	TGI (UACC-257 melanoma)
COC(=O)c1ccccc1C1CN=NC12Cc1c(C)cc(C)cc1C2=O (centres undefined)	> 100 µM	> 100 µM	> 100 µM	> 100 µM	> 100 µM	> 100 µM	> 100 µM	> 100 µM	> 100 µM	> 100 µM	> 100 µM	> 100 µM	> 100 µM	> 100 µM
CC(=O)N1NC(c2ccccc2)=CC(=O)/C1=C/C(=O)c1ccccc1	> 100 µM	> 100 µM	> 100 µM	> 100 µM	> 100 µM	> 100 µM	43.1 µM	> 100 µM	83 µM	> 100 µM	> 100 µM	> 100 µM	> 100 µM	> 100 µM
C=CCNC1=C2C[C@@H](C)C[C@@H](OC)[C@H](OC(=O)CN(C)C)[C@H](C)/C=C(\C)[C@@H](OC(N)=O)[C@H](OC)/C=C\C=C(/C)C(=O)NC(=CC1=O)C2=O	21 µM	1.64 µM	17.6 µM	12.7 µM	0.274 µM	10.5 µM	13.7 µM	> 41.6 µM	> 41.3 µM	13.5 µM	16.2 µM	13.9 µM	17.7 µM	17.2 µM
CC1=C(C)SC(=C2Sc3c(n(C)c(=O)[nH]c3=O)S2)S1	> 100 µM	> 100 µM	> 100 µM	> 100 µM	> 100 µM	> 100 µM	> 100 µM	> 100 µM	> 100 µM	> 100 µM	> 100 µM	> 100 µM	> 100 µM	> 100 µM
CCCCCCCC1c2cc3[nH]c(cc4nc(cc5[nH]c(cc(n2)[C@@]1(C)CC(=O)N(C)C)c(C)c5CCC(=O)O)C(CCC(=O)O)=C4C)cc3C (some centres undefined)	83.1 µM	32.2 µM	35.4 µM	39.8 µM	58.5 µM	33.7 µM	92.5 µM	–	33.9 µM	37.5 µM	34.2 µM	34 µM	76.1 µM	35.2 µM
CCOC(=O)CSc1nc(-c2ccc(OC)cc2)c(C#N)c(=O)[nH]1	> 100 µM	> 100 µM	> 100 µM	> 100 µM	> 100 µM	> 100 µM	> 100 µM	> 100 µM	> 100 µM	> 100 µM	> 100 µM	> 100 µM	> 100 µM	> 100 µM
CCOC(=O)/C(C#N)=C(/NS(=O)(=O)c1cc(C)c(Cl)cc1[S-])[n+]1ccc(N(C)C)cc1	> 100 µM	> 100 µM	> 100 µM	> 100 µM	> 100 µM	> 100 µM	> 100 µM	> 100 µM	> 100 µM	> 100 µM	> 100 µM	> 100 µM	> 100 µM	> 100 µM
CCOC(=O)Cn1c(=O)c2nc(SC)sc2n(-c2ccc(C)cc2)c1=S	49.1 µM	> 100 µM	42.5 µM	> 100 µM	> 100 µM	> 100 µM	> 100 µM	> 100 µM	61.1 µM	> 100 µM	> 75 µM	96.8 µM	> 100 µM	> 100 µM
O=C(NO)c1cccc(OCc2ccc(Br)cc2)c1	10.9 µM	27.4 µM	52.8 µM	35.8 µM	> 64.9 µM	86.3 µM	38.7 µM	18.3 µM	25.6 µM	> 62.1 µM	> 41.4 µM	50 µM	12.8 µM	> 100 µM
Cc1ccc2c(c1)C(=O)/C(=C1/CCc3ccc(C)cc31)C2	> 100 µM	> 100 µM	> 100 µM	> 100 µM	> 100 µM	> 100 µM	> 100 µM	> 100 µM	> 100 µM	> 100 µM	> 100 µM	> 100 µM	> 100 µM	> 100 µM
C=C(Cl)C(C)(Cl)CCC(Cl)C(C)(C)Cl (centres undefined)	> 100 µM	> 100 µM	> 100 µM	> 100 µM	> 100 µM	83.3 µM	> 100 µM	66.1 µM	> 100 µM	> 100 µM	> 100 µM	> 100 µM	> 100 µM	> 100 µM
Cc1cc(S(=O)(=O)Nc2nc(N)n(-c3cnc4ccccc4n3)n2)c(S)cc1Cl	> 100 µM	> 100 µM	> 100 µM	> 100 µM	> 100 µM	> 100 µM	> 100 µM	–	> 100 µM	–	> 100 µM	> 100 µM	> 100 µM	> 100 µM
CCCCCCCC/C=C\CCCCCCCCNc1ccn(C2OC(COP(=O)(O)OC3CC(n4cc(F)c(=O)[nH]c4=O)OC3CO)C(O)C2O)c(=O)n1 (centres undefined)	> 100 µM	> 100 µM	> 100 µM	> 61.8 µM	> 100 µM	> 100 µM	> 100 µM	20.5 µM	> 100 µM	> 100 µM	5.16 µM	> 100 µM	> 100 µM	> 100 µM
COc1ccc(C)c2c1N[C@](C)([C@]1(C)Nc3c(OC)ccc(C)c3C1=O)C2=O	> 100 µM	> 100 µM	> 100 µM	> 100 µM	> 100 µM	> 100 µM	> 100 µM	> 100 µM	> 100 µM	> 100 µM	> 100 µM	> 100 µM	> 100 µM	> 100 µM
C1COC2SC3=C(SC(=C4SC5=C(SCCS5)S4)S3)SC2O1 (centres undefined)	> 100 µM	> 100 µM	> 100 µM	> 100 µM	> 100 µM	> 100 µM	> 100 µM	> 100 µM	> 100 µM	> 100 µM	> 100 µM	> 100 µM	> 100 µM	> 100 µM
O=C(O)c1ccc(Nc2ccnc3cc(Cl)ccc23)cc1O	> 100 µM	> 100 µM	> 100 µM	> 100 µM	> 100 µM	> 100 µM	> 100 µM	> 100 µM	> 100 µM	> 100 µM	88.7 µM	> 100 µM	> 100 µM	> 100 µM
CN(C)c1ccc(N=Nc2cccc3ccoc23)cc1	> 100 µM	> 100 µM	> 100 µM	> 100 µM	> 100 µM	> 100 µM	> 100 µM	> 100 µM	> 100 µM	> 100 µM	> 100 µM	> 100 µM	> 100 µM	> 100 µM
CC(C)(C)CN1[C@@H]2CCCC[C@H]2N(CC(C)(C)C)P1(=O)Cc1ccccc1	29.9 µM	22.2 µM	31.3 µM	21.7 µM	34.3 µM	24.9 µM	32.7 µM	27.5 µM	24.1 µM	23.1 µM	31.6 µM	29.9 µM	30.1 µM	25.6 µM
Cc1ccc(S(=O)(=O)Nn2c(-c3ccccc3)c(C#N)c(-c3ccc(Cl)cc3)c(C#N)c2=O)cc1	30.9 µM	65.3 µM	> 100 µM	–	–	89.5 µM	> 100 µM	52.8 µM	> 100 µM	> 100 µM	55.7 µM	52.4 µM	> 100 µM	> 100 µM
CCOC(=O)CSc1nc2ccccc2c(=O)n1N	> 100 µM	> 100 µM	–	> 100 µM	> 100 µM	> 100 µM	> 100 µM	> 100 µM	> 100 µM	> 100 µM	> 100 µM	> 100 µM	> 100 µM	> 100 µM
CC(=O)C1(c2ccccc2)CCN(Cn2sc3nc(C)cc(C)c3c2=O)CC1	30.6 µM	33.8 µM	> 100 µM	36.9 µM	> 100 µM	> 100 µM	59.8 µM	77.3 µM	39.3 µM	> 100 µM	50.9 µM	> 100 µM	49.8 µM	–
CCCCCCNC(=O)c1cc(NCc2cc(OC)ccc2OC)ccc1O	75 µM	33.9 µM	–	85.2 µM	80 µM	46.7 µM	44.8 µM	66.5 µM	56.5 µM	30.1 µM	36.3 µM	45.8 µM	53.7 µM	45.7 µM
O=C1CC2[C@@H](N3CCCC3)CCC(N1Cc1ccccc1)C2(O)O (some centres undefined)	> 100 µM	> 100 µM	> 100 µM	> 100 µM	> 100 µM	> 100 µM	> 100 µM	> 100 µM	> 100 µM	> 100 µM	> 100 µM	–	> 100 µM	> 100 µM
CC1(C)C(O)c2ccccc2OC1N1CCN(C2Oc3ccccc3C(O)C2(C)C)CC1 (centres undefined)	> 100 µM	> 100 µM	> 100 µM	> 100 µM	> 100 µM	> 100 µM	> 100 µM	> 100 µM	> 100 µM	> 100 µM	> 100 µM	–	> 100 µM	> 100 µM
NCCCNc1ccc2c(c1)[n+]([O-])c1ccccc1[n+]2[O-]	> 100 µM	45.2 µM	93.5 µM	> 100 µM	80.3 µM	57.6 µM	> 100 µM	67.2 µM	55.9 µM	> 100 µM	53.9 µM	–	> 100 µM	83.2 µM
